Reference: ChEMBL document CHEMBL1201862, “PubChem BioAssay data set” (2004)
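These data come from cells grown in 96-well plates and exposed to compound for 48 hours at five concentrations. The concentration for 50% growth inhibition is given as GI50.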 Active and inactive are the calls of the source. Cut-off read from the data, not from the text of the source: active = GI50 up to about 1.1 µM and inactive = higher.

Experiments:
Experiment in all cases: NCI tumour cell line growth inhibition, 48 h
HL-60 = system: HL-60
MOLT-4 = system: MOLT-4
U-251 = system: U-251
K562 = system: K562
DU-145 = system: DU-145
SK-OV-3 = system: SK-OV-3
SK-MEL-28 = system: SK-MEL-28
SW-620 = system: SW-620
NCI-H226 = system: NCI-H226
SNB-75 = system: SNB-75
SR = system: SR
M14 = system: M14
RPMI-8226 = system: RPMI-8226
PC-3 = system: PC-3
UACC-257 = system: UACC-257
BT-549 = system: BT-549
SK-MEL-5 = system: SK-MEL-5
SK-MEL-2 = system: SK-MEL-2
OVCAR-5 = system: OVCAR-5
MDA-MB-231 = system: MDA-MB-231
COLO 205 = system: COLO 205
NCI/ADR-RES = system: NCI/ADR-RES
MDA-N = system: MDA-N
KM12 = system: KM12
TK-10 = system: TK-10
NCI-H23 = system: NCI-H23
HCT-116 = system: HCT-116
UACC-62 = system: UACC-62
NCI-H460 = system: NCI-H460
Hs-578T = system: Hs-578T
OVCAR-3 = system: OVCAR-3
CAKI-1 = system: CAKI-1
SN12C = system: SN12C
OVCAR-4 = system: OVCAR-4
SF-268 = system: SF-268
HCC 2998 = system: HCC 2998
HCT-15 = system: HCT-15
NCI-H522 = system: NCI-H522
UO-31 = system: UO-31
ACHN = system: ACHN
HOP-62 = system: HOP-62
MDA-MB-435 = system: MDA-MB-435
A549 = system: A549
RXF 393 = system: RXF 393
SNB-19 = system: SNB-19
CCRF-CEM = system: CCRF-CEM
T47D = system: T47D
SF-295 = system: SF-295
OVCAR-8 = system: OVCAR-8
EKVX = system: EKVX
HOP-92 = system: HOP-92
786-0 = system: 786-0
LOX IMVI = system: LOX IMVI
MCF7 = system: MCF7
IGROV-1 = system: IGROV-1
Malme-3M = system: Malme-3M
SF-539 = system: SF-539
A498 = system: A498
HT-29 = system: HT-29

For `Oc1cccc2ccc(SSc3ccc4cccc(O)c4n3)nc12`, the GI50 (HL-60) was 22.8 µM (inactive), the GI50 (MOLT-4) was 9.59 µM (inactive) and the GI50 (U-251) was 16.4 µM (inactive). The GI50 (K562) was 29.2 µM (inactive), the GI50 (DU-145) was 73.1 µM (inactive) and the GI50 (SK-OV-3) was 16.3 µM (inactive). The GI50 (SK-MEL-28) was 20.7 µM (inactive), the GI50 (SW-620) was 25.4 µM (inactive) and the GI50 (NCI-H226) was > 100 µM (inactive). The GI50 (SNB-75) was 14.7 µM (inactive), the GI50 (SR) was 23.9 µM (inactive) and the GI50 (M14) was 16 µM (inactive). For the same compound, the GI50 (RPMI-8226) was 26.1 µM (inactive), the GI50 (PC-3) was 16.3 µM (inactive) and the GI50 (UACC-257) was 20.2 µM (inactive). For the same compound, the GI50 (BT-549) was 21.1 µM (inactive), the GI50 (SK-MEL-5) was 33.5 µM (inactive) and the GI50 (SK-MEL-2) was 19.1 µM (inactive). The GI50 (OVCAR-5) was 19.4 µM (inactive), the GI50 (MDA-MB-231) was 16.7 µM (inactive) and the GI50 (COLO 205) was 18.8 µM (inactive). For the same compound, the GI50 (NCI/ADR-RES) was 26.1 µM (inactive), the GI50 (MDA-N) was 17.5 µM (inactive) and the GI50 (KM12) was 13.7 µM (inactive). The GI50 (TK-10) was 20.1 µM (inactive), the GI50 (NCI-H23) was 16.9 µM (inactive) and the GI50 (HCT-116) was 18.2 µM (inactive). For the same compound, the GI50 (UACC-62) was 17.4 µM (inactive), the GI50 (NCI-H460) was 19.3 µM (inactive) and the GI50 (Hs-578T) was 31.4 µM (inactive). For the same compound, the GI50 (OVCAR-3) was 16.1 µM (inactive), the GI50 (CAKI-1) was 18.5 µM (inactive) and the GI50 (SN12C) was 17.9 µM (inactive). For the same compound, the GI50 (OVCAR-4) was 16.1 µM (inactive), the GI50 (SF-268) was 25.3 µM (inactive) and the GI50 (HCC 2998) was 5.56 µM (inactive). For the same compound, the GI50 (HCT-15) was 22.3 µM, the GI50 (NCI-H522) was 15.8 µM (inactive) and the GI50 (UO-31) was 25.8 µM (inactive). For the same compound, the GI50 (ACHN) was 15.1 µM (inactive), the GI50 (HOP-62) was 17.7 µM (inactive) and the GI50 (MDA-MB-435) was 19 µM (inactive). The GI50 (A549) was 31 µM (inactive), the GI50 (RXF 393) was 16 µM (inactive) and the GI50 (SNB-19) was > 100 µM (inactive). For the same compound, the GI50 (CCRF-CEM) was 3.36 µM (inactive), the GI50 (T47D) was 13.2 µM (inactive) and the GI50 (SF-295) was 16.6 µM (inactive). The GI50 (OVCAR-8) was 19.1 µM (inactive), the GI50 (EKVX) was 29.3 µM (inactive) and the GI50 (HOP-92) was 23 µM (inactive). The GI50 (786-0) was 18.2 µM (inactive), the GI50 (LOX IMVI) was 18.2 µM (inactive) and the GI50 (MCF7) was 5.89 µM (inactive). The GI50 (IGROV-1) was 24.7 µM (inactive), the GI50 (Malme-3M) was 16 µM (inactive) and the GI50 (SF-539) was 19.8 µM (inactive). The GI50 (A498) was 19.2 µM (inactive) and the GI50 (HT-29) was 18.7 µM (inactive).
